Data as given in US9439986B2, “Tricarbonyl technetium-99m, rhenium-185/187, or rhenium-188 labeled cyclic RGD derivatives and uses thereof” (BIO IMAGING KOREA CO., LTD., priority 2010, dated 2016).
Blank lines part the entries; values can stand above or below the substance they belong to.

Assays:
tumor = tested on: tumor
Procedure: The small-animal SPECT/CT was used to acquire static imaging of the mice for 60 minutes after the injection. The imaging protocol consisted of repetition of emission and transmission as follows: [10 min emission+transmission]×6 times

integrin αvβ3 = conditions: cRGDyV 18 mg/Kg tail vein 10 minutes before; at 25 minutes post-injection; compared to images of FIG. 6
Procedure: Upon injection, SPECT/CT images were acquired under following conditions:
The animal models were anesthetized with 2% isofluorane gas for the duration of image acquisition time, and the tumor size of the animal models was 0.4 cc. CT images were taken under condition of 45 v, 178 μA for 4 min and 30 sec., and acquired at 10 minute intervals for total 9 times (i.e., for 90 minutes after the injection).

subcutaneous tumor = test: Tumor growth suppression and treatment performance of rhenium-188 labeled derivative in tumor model mice (I); format: in vivo
Procedure: Treatment effect experiment was conducted to investigate the ability of tricarbonyl rhenium-188 labeled cyclic RGD derivative to suppress tumor growth.
The rhenium-188 labeled cyclic RGD derivative of Example 5 was injected once in a week, for four weeks. The models to determine treatment effect were divided into small radioactive injection group (300 μCi) and large radioactive injection group (600 μCi), and at the same time, a control group injected with sterilized saline and a comparative group injected with 100 μg of cyclic RGD (cRGDyV) intraperitoneally everyday, were also set. The compound of Example 11 and the sterilized saline were administered through tail veins. The CT images was taken once a week, to visually measure the growth and size of the subcutaneous tumor. The tumor was actually measured three times a week using Vernier Calipers, and the weights of the animal models were also consistently measured three times a week for total 4 weeks.

[1] = 100 μg cyclic RGD (cRGDyV) intraperitoneally everyday, initial tumor size 0.7 cc
[2] = 600 μCi once a week for four weeks
[3] = 600 μCi once a week, 0.3 cc at initial measurement

Substance: (tricarbonyl [^188Re]rhenium-N-α-bis-hydroxycarbonyl methyl-aspartic acid)-[cyclic(lysine-alginine-glycine-aspartic acid-D-phenylalanine)]2 [Example 12]
CD31 blood vessel staining of tumor tissue slice (tumor; 600 μCi/200 μL): no clear vessels were observed | integrin αvβ3 distribution in tumor tissue slice using Q-dot RGD derivatives (tumor; 600 μCi/200 μL): most integrin was damaged | reduction of uptake rate in tumor (SPECT with the compound of Example 15) versus non-administered model (tumor; 600 μCi/200 μL, SPECT after three days): 59% | distribution of blood vessels around the tumor (photographs of removed tumors) (tumor; 600 μCi/200 μL, versus non-administered model): noticeably less distribution of ambient blood vessels

Substance: (tricarbonyl-[^99mTc]technetium-N-α-bis-hydroxycarbonyl methyl-aspartic acid)-[cyclic (lysine-alginine-glycine-aspartic acid-D-phenylalanine)]2 [Example 15]
reduction of absorption in tumor after administration of cyclic RGD (cRGDyV) (integrin αvβ3): ≥ 94%

weight of animals after treatment (subcutaneous tumor; 100 μg cyclic RGD (cRGDyV) intraperitoneally everyday, initial measurement 23 g): 30 g
Substance: cRGDyV [cyclic RGD]
rate of tumor growth compared with sterilized saline group (subcutaneous tumor; 100 μg cyclic RGD (cRGDyV) intraperitoneally everyday): no meaningful difference | tumor size at 2 week (subcutaneous tumor; [1]): 3.9 cc | tumor size at 3 week (subcutaneous tumor; [1]): 8.0 cc | tumor size at last week of treatment (subcutaneous tumor; [1]): 12.9 cc

Substance: cyclic{(tricarbonyl-[^185/187Re]rhenium-N-α-bis-hydroxycarbonyl methyl-alginine-glycine-aspartic acid-D-phenylalanine} [Example 6]
tumor size after three days (tumor; 600 μCi/200 μL single injection, initial size 0.3 cc, non-administered model 0.65 cc): 0.35 cc

Substance: cyclic{(tricarbonyl-[^188Re]rhenium-N-α-bis-hydroxycarbonyl methyl-glycine-CONH(CH2CH2O)4CH2CH2CONH-lysine)-alginine-glycine-aspartic acid-D-phenylalanine} [Example 11]
tumor growth suppression ability compared to sterilized saline or cyclic RGD groups (subcutaneous tumor; 300 μCi once a week for four weeks): approximately 50% | tumor size when the treatment for four weeks was ended (subcutaneous tumor; 300 μCi tail vein once a week for four weeks, initial tumor size 0.23 cc): 0.66 cc | tumor growth suppression ability compared to low radiation energy treatment group (300 μCi) (subcutaneous tumor; [2]): approximately 79% | tumor growth suppression ability compared to sterilized saline and cyclic RGD groups (subcutaneous tumor; [2]): approximately 90% | tumor size at the end of the treatment (subcutaneous tumor; 600 μCi once a week for four weeks, 0.3 cc at initial measurement): 1.4 cc | tumor size at 3 week (subcutaneous tumor; [3]): 0.7 cc | tumor size at week 2 (subcutaneous tumor; [3]): 0.3 cc
